Assays:
[1] = Pharmacokinetic study in plasma after oral hexanic extract of Tagetes lucida, healthy and LPS-damaged mice; type: in vivo, ICR mice; conditions: for amount of drug available in the plasma, LPS mice compared to healthy subjects / Cmax / AUC(0-inf) / MRT / Tmax / half-life / AUC(0-t) / Cl/F: 10 mg/kg oral hexanic extract; for amount of drug available in the plasma, LPS mice compared to healthy subjects: concentration-time profiles (Figure 3); for Cmax / AUC(0-inf) / MRT / Tmax / half-life / AUC(0-t): ICR, mouse, po, 10 mg/kg; for Cmax: non-compartmental; for Cmax / AUC(0-inf) / MRT / Tmax / half-life / AUC(0-t) / Cl/F: mean ± SEM (n = 5); for AUC(0-t): to 6 h
Description: The optimized HPLC-validated method for the quantification of coumarins present in the hexane extract of T. lucida was used to evaluate the concentration profiles over time in the plasma, brain, kidney, and spleen biological matrices after an oral administration of 10 mg/kg of the extract.
Blood samples were obtained from the retro-orbital sinus of mice and collected in heparinized tubes. Plasma was separated by centrifugation at 3500 rpm for 5 min and stored in new Eppendorf tubes at −70 °C, until further processing.
One hundred microliters of plasma and organs samples, spiked with calibration and QC concentration or samples from the pharmacokinetic study, were mixed with 300 µL of acetonitrile containing the IS at 10 µg/mL for protein precipitation, and vortexed for 3 min. Then, 200 µL of dichloromethane were added, for liquid–liquid extraction of the bioactive compounds, and vortexed for 5 min. The mixture was centrifuged at 14,000 rpm for 10 min, and the extracted organic layers were placed in new tubes, until completely dry at room temperature. For quantitative analysis, samples were resuspended in 100 µL of methanol, transferred to sampling vials, and injected into the chromatographic system, described below.
A pharmacokinetic study was carried out in sixty mice, divided in six subgroups, according to sample collection times. An acute inflammation process by the intraperitoneal (i.p.) administration of LPS at 2 mg/kg was induced in half of the mice per group, while the other half received an i.p. injection of saline solution. Ten min after the damage was induced, the mice were administered with an oral dose of 10 mg/kg of the bioactive fraction dissolved in a 1% Tween-20 aqueous solution. Blood and tissue samples were obtained and processed at 0, 0.25, 0.75, 1.5, 2, 4, and 6 h post-dosing, as indicated in the “Samples collection” and “Plasma and tissue samples processing” sections.
Pharmacokinetic parameters of PE, SC, DF, HR, and PU in plasma were calculated by PKSolver software.

[2] = Stability of the analytes in spiked plasma, brain, kidney and spleen matrices (autosampler, long-term, freeze-thaw); type: physicochemical, mice; conditions: for Stability Autosampler RE (%): processed samples in autosampler vials 24 h room temperature; for Stability Freeze-Thaw RE (%): three cycles (−4 °C to 25 °C); for Stability Long-Term RE (%): −70 °C for 30 days
Description: The stability of the compounds obtained from each enriched matrices at the QC concentrations was evaluated under different conditions that covered the processing, handling, and storage phases that could be developed throughout the study.
Individual stock solutions of PE, SC, DF, HR, PU, and rutin (IS) were prepared separately in methanol (1 mg/mL) and stored at −4 °C until use. From the stocks, a working solution in methanol was prepared at a concentration of 200 µg/mL of each coumarin. Blank plasma or organs supernatant samples (80 µL) were spiked with 20 µL of serial dilutions of working solution to obtain calibration curves ranging between 0.156, 0.312, 0.625, 1.25, 2.5, 5, 10, 20, and 40 µg/mL of each coumarin. Quality control (QC) samples were prepared at three levels of 0.3 (low), 3 (medium), and 30 (high) µg/mL for each coumarin.
The stability of the analytes in plasma, brain, kidneys, and spleen was evaluated by the analyzed concentrations of QC subjected to three different conditions. Short-term stability was determined by analysis of samples processed in the autosampler vials at 24 h at room temperature. Long-term stability was tested on samples stored at −70 °C for 30 days. Freeze-thaw stability was determined after three cycles (−4 °C to 25 °C) on three consecutive days.

[3] = plasma, LPS-damaged ICR mice (LPS 2 mg/kg i.p.)

Structure (SMILES): COc1cc2ccc(=O)oc2c(OC)c1OC [DF, dimethylfraxetin]
- amount of drug available in the plasma, LPS mice compared to healthy subjects [1]: three-fold higher
- Cmax [1, 3]: 1820 ± 270 ng/mL
- AUC(0-inf) ([1]; plasma, LPS-damaged ICR mice): 3610 ± 400 ng·h/mL
- MRT ([1]; plasma, LPS-damaged ICR mice): 2.72 ± 0.3 h
- Tmax ([1]; plasma, LPS-damaged ICR mice): 0.6 ± 0.24 h
- half-life ([1]; plasma, LPS-damaged ICR mice): 1.5 ± 0.37 h
- AUC(0-t) ([1]; plasma, LPS-damaged ICR mice): 3250 ± 310 ng·h/mL
- AUC(0-inf) ([1]; plasma, healthy ICR mice): 1710 ± 190 ng·h/mL
- MRT ([1]; plasma, healthy ICR mice): 2.35 ± 0.33 h
- Tmax ([1]; plasma, healthy ICR mice): 1.2 ± 0.31 h
- half-life ([1]; plasma, healthy ICR mice): 0.98 ± 0.27 h
- Cmax ([1]; plasma, healthy ICR mice): 580 ± 20 ng/mL
- AUC(0-t) ([1]; plasma, healthy ICR mice): 1640 ± 170 ng·h/mL
- pharmacokinetic characteristics in words ([1]; LPS-treated mice, plasma, Figure 3b, 3c): fast distribution and subsequent elimination
- Cl/F ([1]; plasma, LPS-damaged ICR mice): 28.81 ± 2.51 (mg/kg)/(μg/mL)/h
- increase in the Cmax in the damaged animals versus healthy ([1]; plasma, LPS-damaged vs healthy mice): up to three times more
- Cl/F ([1]; plasma, healthy ICR mice): 62.45 ± 9.38 (mg/kg)/(μg/mL)/h
- Stability Autosampler RE (%) ([2]; brain, nominal 0.3 µg/mL): -4.07%
- Stability Freeze-Thaw RE (%) ([2]; brain, nominal 0.3 µg/mL): 0.03%
- Stability Long-Term RE (%) ([2]; brain, nominal 0.3 µg/mL): -0.62%
- Stability Autosampler RE (%) ([2]; brain, nominal 3.0 µg/mL): 3.73%
- Stability Freeze-Thaw RE (%) ([2]; brain, nominal 3.0 µg/mL): -6.72%
- Stability Long-Term RE (%) ([2]; brain, nominal 3.0 µg/mL): 0.46%
- Stability Autosampler RE (%) ([2]; brain, nominal 30.0 µg/mL): 3.21%
- Stability Freeze-Thaw RE (%) ([2]; brain, nominal 30.0 µg/mL): -0.35%
- Stability Long-Term RE (%) ([2]; brain, nominal 30.0 µg/mL): -4.35%
- Stability Autosampler RE (%) ([2]; kidney, nominal 0.3 µg/mL): 5.83%
- Stability Freeze-Thaw RE (%) ([2]; kidney, nominal 0.3 µg/mL): -0.65%
- Stability Long-Term RE (%) ([2]; kidney, nominal 0.3 µg/mL): 5.19%
- Stability Autosampler RE (%) ([2]; kidney, nominal 3.0 µg/mL): 4.79%
- Stability Freeze-Thaw RE (%) ([2]; kidney, nominal 3.0 µg/mL): 0.82%
- Stability Long-Term RE (%) ([2]; kidney, nominal 3.0 µg/mL): 8.12%
- Stability Autosampler RE (%) ([2]; kidney, nominal 30.0 µg/mL): 0.66%
- Stability Freeze-Thaw RE (%) ([2]; kidney, nominal 30.0 µg/mL): 0.47%
- Stability Long-Term RE (%) ([2]; kidney, nominal 30.0 µg/mL): 5.67%
- Stability Autosampler RE (%) ([2]; plasma, nominal 0.3 µg/mL): 2.59%
- Stability Freeze-Thaw RE (%) ([2]; plasma, nominal 0.3 µg/mL): -12.33%
- Stability Long-Term RE (%) ([2]; plasma, nominal 0.3 µg/mL): -6.74%
- Stability Autosampler RE (%) ([2]; plasma, nominal 3.0 µg/mL): -1.38%
- Stability Freeze-Thaw RE (%) ([2]; plasma, nominal 3.0 µg/mL): 2.47%
- Stability Long-Term RE (%) ([2]; plasma, nominal 3.0 µg/mL): -3.13%
- Stability Autosampler RE (%) ([2]; plasma, nominal 30.0 µg/mL): 4.21%
- Stability Freeze-Thaw RE (%) ([2]; plasma, nominal 30.0 µg/mL): 0.49%
- Stability Long-Term RE (%) ([2]; plasma, nominal 30.0 µg/mL): -3.40%
- Stability Autosampler RE (%) ([2]; spleen, nominal 0.3 µg/mL): 6.88%
- Stability Freeze-Thaw RE (%) ([2]; spleen, nominal 0.3 µg/mL): -0.67%
- Stability Long-Term RE (%) ([2]; spleen, nominal 0.3 µg/mL): 5.43%
- Stability Autosampler RE (%) ([2]; spleen, nominal 3.0 µg/mL): -1.66%
- Stability Freeze-Thaw RE (%) ([2]; spleen, nominal 3.0 µg/mL): 0.49%
- Stability Long-Term RE (%) ([2]; spleen, nominal 3.0 µg/mL): 7.09%
- Stability Autosampler RE (%) ([2]; spleen, nominal 30.0 µg/mL): 1.50%
- Stability Freeze-Thaw RE (%) ([2]; spleen, nominal 30.0 µg/mL): -1.06%
- Stability Long-Term RE (%) ([2]; spleen, nominal 30.0 µg/mL): 7.60%

Structure (SMILES): COc1ccc2ccc(=O)oc2c1 [HR, herniarin]
- amount of drug available in the plasma, LPS mice compared to healthy subjects [1]: three-fold higher
- Cmax [1, 3]: 1480 ± 190 ng/mL
- AUC(0-inf) ([1]; plasma, LPS-damaged ICR mice): 3210 ± 380 ng·h/mL
- MRT ([1]; plasma, LPS-damaged ICR mice): 2.77 ± 0.25 h
- Tmax ([1]; plasma, LPS-damaged ICR mice): 0.25 h
- half-life ([1]; plasma, LPS-damaged ICR mice): 1.49 ± 0.35 h
- AUC(0-t) ([1]; plasma, LPS-damaged ICR mice): 2950 ± 280 ng·h/mL
- AUC(0-inf) ([1]; plasma, healthy ICR mice): 1030 ± 140 ng·h/mL
- MRT ([1]; plasma, healthy ICR mice): 2.77 ± 0.35 h
- Tmax ([1]; plasma, healthy ICR mice): 0.95 ± 0.35 h
- half-life ([1]; plasma, healthy ICR mice): 1.66 ± 0.46 h
- Cmax ([1]; plasma, healthy ICR mice): 620 ± 340 ng/mL
- AUC(0-t) ([1]; plasma, healthy ICR mice): 920 ± 120 ng·h/mL
- Cl/F ([1]; plasma, LPS-damaged ICR mice): 32.50 ± 2.91 (mg/kg)/(μg/mL)/h
- Cl/F ([1]; plasma, healthy ICR mice): 103.7 ± 13.0 (mg/kg)/(μg/mL)/h
- Stability Autosampler RE (%) ([2]; brain, nominal 0.3 µg/mL): -3.47%
- Stability Freeze-Thaw RE (%) ([2]; brain, nominal 0.3 µg/mL): -0.69%
- Stability Long-Term RE (%) ([2]; brain, nominal 0.3 µg/mL): -0.21%
- Stability Autosampler RE (%) ([2]; brain, nominal 3.0 µg/mL): 2.31%
- Stability Freeze-Thaw RE (%) ([2]; brain, nominal 3.0 µg/mL): -5.14%
- Stability Long-Term RE (%) ([2]; brain, nominal 3.0 µg/mL): -0.98%
- Stability Autosampler RE (%) ([2]; brain, nominal 30.0 µg/mL): 3.86%
- Stability Freeze-Thaw RE (%) ([2]; brain, nominal 30.0 µg/mL): -1.02%
- Stability Long-Term RE (%) ([2]; brain, nominal 30.0 µg/mL): -4.72%
- Stability Autosampler RE (%) ([2]; kidney, nominal 0.3 µg/mL): 8.17%
- Stability Freeze-Thaw RE (%) ([2]; kidney, nominal 0.3 µg/mL): 2.03%
- Stability Long-Term RE (%) ([2]; kidney, nominal 0.3 µg/mL): 5.12%
- Stability Autosampler RE (%) ([2]; kidney, nominal 3.0 µg/mL): 2.81%
- Stability Freeze-Thaw RE (%) ([2]; kidney, nominal 3.0 µg/mL): -0.62%
- Stability Long-Term RE (%) ([2]; kidney, nominal 3.0 µg/mL): 3.06%
- Stability Autosampler RE (%) ([2]; kidney, nominal 30.0 µg/mL): 1.35%
- Stability Freeze-Thaw RE (%) ([2]; kidney, nominal 30.0 µg/mL): 2.25%
- Stability Long-Term RE (%) ([2]; kidney, nominal 30.0 µg/mL): 3.32%
- Stability Autosampler RE (%) ([2]; plasma, nominal 0.3 µg/mL): 8.34%
- Stability Freeze-Thaw RE (%) ([2]; plasma, nominal 0.3 µg/mL): 0.67%
- Stability Long-Term RE (%) ([2]; plasma, nominal 0.3 µg/mL): 9.39%
- Stability Autosampler RE (%) ([2]; plasma, nominal 3.0 µg/mL): 12.83%
- Stability Freeze-Thaw RE (%) ([2]; plasma, nominal 3.0 µg/mL): -7.90%
- Stability Long-Term RE (%) ([2]; plasma, nominal 3.0 µg/mL): 3.99%
- Stability Autosampler RE (%) ([2]; plasma, nominal 30.0 µg/mL): 14.32%
- Stability Freeze-Thaw RE (%) ([2]; plasma, nominal 30.0 µg/mL): -5.47%
- Stability Long-Term RE (%) ([2]; plasma, nominal 30.0 µg/mL): 3.55%
- Stability Autosampler RE (%) ([2]; spleen, nominal 0.3 µg/mL): 5.46%
- Stability Freeze-Thaw RE (%) ([2]; spleen, nominal 0.3 µg/mL): -0.63%
- Stability Long-Term RE (%) ([2]; spleen, nominal 0.3 µg/mL): 0.22%
- Stability Autosampler RE (%) ([2]; spleen, nominal 3.0 µg/mL): -0.16%
- Stability Freeze-Thaw RE (%) ([2]; spleen, nominal 3.0 µg/mL): 4.87%
- Stability Long-Term RE (%) ([2]; spleen, nominal 3.0 µg/mL): 7.44%
- Stability Autosampler RE (%) ([2]; spleen, nominal 30.0 µg/mL): 1.18%
- Stability Freeze-Thaw RE (%) ([2]; spleen, nominal 30.0 µg/mL): 0.49%
- Stability Long-Term RE (%) ([2]; spleen, nominal 30.0 µg/mL): 2.92%
